These results are taken from patent US10710988B2, “Piperazine derivative” (Astellas Pharma Inc., priority 2016, dated 2020).

Format in all cases: cell-based
The target in one assay is T1, human MC4 receptor (Homo sapiens, UniProt P32245).
T1 construct: expressed in transfected cells; host or cells: FreeStyle 293-F cells (transient, electroporation)
The assay can be described thus: Human MC4 receptor activation, cAMP production in cells transiently expressing the receptor. As to conditions: FreeStyle 293-F cells expressing human MC4 receptor, α-MSH maximum = 100%. The source says: (§1) (1) Construction of Human MC Receptor-Expressing Vector
(§2) A human MC4 receptor gene (GenBank Accession No.: NM_005912.2), a human MC1 receptor gene (GenBank Accession No.: NM_002386.3), or a human MC3 receptor gene (GenBank Accession No.: NM_019888.3) was introduced into an expression vector pcDNA™ 3.1N/V5-His TOPO (registered trademark) (Thermo Fisher Scientific Inc).
(§3) (2) Construction of Cells Transiently Expressing Human MC Receptor
(§4) An expression vector for a human MC4, MC1, or MC3 receptor was introduced into FreeStyle™ 293-F cells (Thermo Fisher Scientific Inc., product number: R790-07). For the introduction, electroporation was employed. That is, 1×10^7 FreeStyle™ 293-F cells were suspended in 80 μL of an Electroporation Buffer (Thermo Fisher Scientific Inc., product number: B201-100), and 20 μg of the expression vector was added thereto. The resultant was put into a cuvette (OC-100 Processing Assembly, MaxCyte, Inc.) and electroporated with MaxCyte STX (registered trademark) (MaxCyte, Inc.). The cells were cultured for a day, suspended in a Cell Banker (registered trademark) 1 (TAKARA BIO INC. or JUJI FIELD Inc., product number: BLC-1), and stored frozen until they were used.
(§5) (3) Measurement of Amount of cAMP Production
(§6) Measurement was carried out by using a LANCE (registered trademark) Ultra cAMP Kit (PerkinElmer, Inc.) in accordance with the attached instructions. That is, after dissolution in DMSO, the test compound (a final concentration of 1 pM to 30 μM) diluted with an assay buffer (Hank's balanced salt solution, 5 mM 4-(2-hydroxyethyl)-1-piperazineethanesulfonic acid (HEPES), 0.5 mM 3-isobutyl-1-methylxanthine (IBMX), 0.1% bovine serum albumin, pH 7.4), or α-MSH (Bachem Inc., a final concentration of 1 pM to 30 μM) was added to OptiPlate-384 (PerkinElmer, Inc.). Furthermore, the suspension of the cells transiently expressing the human MC4, MC1, or MC3 receptor prepared using the assay buffer was added thereto at 1,000 cells/well, and then left to stand at room temperature for about 1 hour. Thereafter, an Eu-cAMP tracer solution and an ULight™-anti-cAMP solution were added thereto, and then the resulting solution was left to stand at room temperature for about 1 hour. The amount of cAMP was calculated using EnVision (registered trademark) (PerkinElmer Inc.).
(§7) For the agonistic activity, the efficacy (EC50 (μM)) was calculated by a non-linear regression method with a Sigmoid-Emax model, by defining the maximum reaction using α-MSH as 100% and the reaction using the vehicle alone as 0%, respectively.
Background: Cyclic AMP is a second messenger, typically raised through Gs and lowered through Gi signalling.

The next assay deals with T2, human MC1 receptor (Homo sapiens, UniProt Q01726).
T2 construct: expressed in transfected cells; host or cells: FreeStyle 293-F cells (transient, electroporation)
T2 sequence (Q01726 whole entry): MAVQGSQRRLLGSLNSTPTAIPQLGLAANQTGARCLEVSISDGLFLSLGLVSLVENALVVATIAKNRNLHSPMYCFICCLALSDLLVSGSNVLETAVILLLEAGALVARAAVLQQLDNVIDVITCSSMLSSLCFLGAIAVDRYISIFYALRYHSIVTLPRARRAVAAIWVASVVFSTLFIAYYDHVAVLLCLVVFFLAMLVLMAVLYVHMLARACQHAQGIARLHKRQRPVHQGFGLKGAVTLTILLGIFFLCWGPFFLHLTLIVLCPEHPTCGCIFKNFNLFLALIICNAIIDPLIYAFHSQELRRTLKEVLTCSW
The assay can be described thus: Human MC1 receptor activation, cAMP production in cells transiently expressing the receptor. Particulars: FreeStyle 293-F cells expressing human MC1 receptor, α-MSH maximum = 100%.
Source text: as §1, §2, §3, §4, §5, §6, §7

For the next assay, the target named is T3, human MC3 receptor (Homo sapiens, UniProt P41968).
T3 construct: expressed in transfected cells; host or cells: FreeStyle 293-F cells (transient, electroporation)
T3 sequence (P41968 whole entry): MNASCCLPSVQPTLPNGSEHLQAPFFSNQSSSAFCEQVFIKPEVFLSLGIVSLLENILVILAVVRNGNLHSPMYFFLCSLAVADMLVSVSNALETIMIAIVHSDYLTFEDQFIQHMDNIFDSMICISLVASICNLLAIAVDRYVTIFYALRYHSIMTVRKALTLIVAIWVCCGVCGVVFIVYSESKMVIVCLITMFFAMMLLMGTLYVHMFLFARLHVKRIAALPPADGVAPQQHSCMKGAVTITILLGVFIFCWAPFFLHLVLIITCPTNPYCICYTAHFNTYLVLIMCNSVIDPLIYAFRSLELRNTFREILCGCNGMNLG
Nature of the assay: Human MC3 receptor activation, cAMP production in cells transiently expressing the receptor. Particulars: FreeStyle 293-F cells expressing human MC3 receptor, α-MSH maximum = 100%.
Source text: as §1, §2, §3, §4, §5, §6, §7

In a further assay the target is T4, rat MC4 receptor (Rattus norvegicus, UniProt P70596).
T4 construct: expressed in transfected cells; host or cells: FreeStyle 293-F cells (transient, electroporation)
T4 sequence (P70596 whole entry): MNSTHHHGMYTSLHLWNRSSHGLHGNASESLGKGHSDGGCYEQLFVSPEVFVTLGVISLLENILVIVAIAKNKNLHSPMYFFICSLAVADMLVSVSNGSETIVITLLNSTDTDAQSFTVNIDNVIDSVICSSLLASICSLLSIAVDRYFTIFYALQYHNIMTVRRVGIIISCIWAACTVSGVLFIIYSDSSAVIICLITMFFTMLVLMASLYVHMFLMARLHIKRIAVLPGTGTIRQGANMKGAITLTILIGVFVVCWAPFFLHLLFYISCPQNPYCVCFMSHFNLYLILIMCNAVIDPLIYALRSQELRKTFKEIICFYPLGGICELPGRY
The assay can be described thus: Rat MC4 receptor activation, cAMP production in cells transiently expressing the receptor. As to conditions: FreeStyle 293-F cells expressing rat MC4 receptor, α-MSH maximum = 100%.
Source text: (1) Construction of Rat MC4 Receptor-Expressing Vector
A rat MC4 receptor gene (GenBank Accession No.: NM_013099.3) was introduced into an expression vector pcDNA™ 3.1N/V5-His TOPO (registered trademark) (Thermo Fisher Scientific Inc.).
(2) Construction of Cells Transiently Expressing Rat MC4 Receptor
as §4, with “rat MC4” for “human MC4, MC1, or MC3”, “Inc.).” for “Inc., product number: R790-07).”, “electroporation buffer” for “Electroporation Buffer”, “Inc.),” for “Inc., product number: B201-100),”, “Inc.),” for “Inc., product number: BLC-1),”
as §5
Measurement was carried out in accordance with the attached instructions, using a LANCE (registered trademark) Ultra cAMP Kit (PerkinElmer, Inc.). That is, after dissolution in DMSO, the test compound (a final concentration of 1 pM to 30 μM) diluted with an assay buffer (Hank's balanced salt solution, 5 mM HEPES, 0.5 mM IBMX, 0.1% bovine serum albumin, pH 7.4), or α-MSH (Bachem Inc., a final concentration of 1 pM to 30 μM) was added to OptiPlate-384 (PerkinElmer, Inc.). Furthermore, the suspension of the cells transiently expressing the rat MC receptor that was prepared using the assay buffer was added thereto at 1,000 cells/well, and then left to stand at room temperature for about 1 hour. Thereafter, an Eu-cAMP tracer solution and an ULight™-anti-cAMP solution were added thereto, and the resulting solution was left to stand at room temperature for about 1 hour. The amount of cAMP was calculated using EnVision (registered trademark) (PerkinElmer Inc).
For the agonistic activity, an efficacy (EC50 (μM)) was calculated by a non-linear regression method with a Sigmoid-Emax model, by defining the maximum reaction using α-MSH as 100% and the reaction using a vehicle alone as 0%, respectively.

SMILES strings stand for the structures. Counter-ions that a name gives are not always drawn.

T1 sequence (P32245 whole entry): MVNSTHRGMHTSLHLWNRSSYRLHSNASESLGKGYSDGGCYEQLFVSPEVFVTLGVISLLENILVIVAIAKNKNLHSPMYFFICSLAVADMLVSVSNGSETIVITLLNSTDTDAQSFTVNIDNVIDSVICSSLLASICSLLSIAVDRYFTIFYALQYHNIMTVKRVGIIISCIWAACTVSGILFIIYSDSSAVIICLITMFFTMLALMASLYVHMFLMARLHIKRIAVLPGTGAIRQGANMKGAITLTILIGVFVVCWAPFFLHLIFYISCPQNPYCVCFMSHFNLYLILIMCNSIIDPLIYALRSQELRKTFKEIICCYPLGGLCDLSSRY

At human MC4 receptor, `CC(=O)N[C@@H](Cc1ccccc1Cl)C(=O)N1CCN(C(=O)C2CN(C(C)(C)C)CC2c2cc(F)c(Cl)c(F)c2)[C@@H](C)C1` (stereo partly shown) [Example 22] registered an EC50 of 180 nM.
With `CC(=O)N[C@@H](Cc1cccc(F)c1)C(=O)N1CCN(C(=O)[C@@H]2CN(C(C)(C)C)C[C@H]2c2ccc(F)cc2F)[C@@H](C)C1` [Example 17], at human MC4 receptor, a half-maximal effect (EC50) was put at 40 nM.
On the same count and under the same terms, next, `CCC(=O)N[C@@H](CC(C)(C)C)C(=O)N1CCN(C(=O)[C@@H]2CN(C3CCOCC3)C[C@H]2c2ccc(Cl)cc2F)CC12CC2` [Example 13]: 34 nM; `CC(=O)N[C@@H](CC(C)(C)C)C(=O)N1CCN(C(=O)[C@@H]2CN(CC3CC3)C[C@H]2c2ccc(F)cc2F)[C@@H](C)C1` [Example 27]: 1000 nM; `C[C@H]1CN(C(=O)[C@@H](NC(=O)C2CC2)C2CCCCC2)CCN1C(=O)[C@@H]1CN(C(C)(C)C)C[C@H]1c1ccc(F)cc1F` [Example 9]: 89 nM.
Same read-out and setting: next, `CC(=O)N[C@@H](CC(C)(C)C)C(=O)N1CCN(C(=O)[C@@H]2CN(C)C[C@H]2c2ccc(F)cc2F)[C@@H](C)C1` [Example 26]: 5000 nM.
For the compound `C[C@H]1CN(C(=O)[C@@H](N)C2CCCCC2)CCN1C(=O)[C@@H]1CN(C(C)(C)C)C[C@H]1c1ccc(F)cc1F` [Example 30, (2S)-2-amino-1-[(3S)-4-{[(3S,4R)-1-tert-butyl-4-(2,4-difluorophenyl)pyrrolidin-3-yl]carbonyl}-3-methylpiperazin-1-yl]-2-cyclohexylethanone dihydrochloride], the EC50 at human MC4 receptor was 1800 nM.
The same measure, in the same setting: next, `C[C@H]1CN(C(=O)[C@H](Cc2ccccc2Cl)N(C)C)CCN1C(=O)[C@@H]1CN(C(C)(C)C)C[C@H]1c1ccc(F)cc1F` [Example 28, (2S)-1-[(3S)-4-{[(3 S,4R)-1-tert-butyl-4-(2,4-difluorophenyl)pyrrolidin-3-yl]carbonyl}-3-methylpiperazin-1-yl]-3-(2-chlorophenyl)-2-(dimethylamino)propan-1-one dihydrochloride]: 5.5 nM; `CC(=O)N[C@@H](CC1CCC(C)(C)CC1)C(=O)N1CCN(C(=O)[C@@H]2CN(C(C)(C)C)C[C@H]2c2ccc(F)cc2F)[C@@H](C)C1` [Example 18, N-[(2S)-1-[(3S)-4-{[(3 S,4R)-1-tert-butyl-4-(2,4-difluorophenyl)pyrrolidin-3-yl]carbonyl}-3-methylpiperazin-1-yl]-3-(4,4-dimethylcyclohexyl)-1-oxopropan-2-yl]acetamide monohydrochloride]: 62 nM.
Take `CC(=O)N[C@H](C(=O)N1CCN(C(=O)[C@@H]2CN(C(C)(C)C)C[C@H]2c2ccc(F)cc2F)[C@@H](C)C1)C1CCCC1` [Example 15]: on human MC4 receptor, the midpoint of the response, the EC50, lay at 220 nM.
The same measure, in the same setting: under `CC(C)C[C@H](NS(C)(=O)=O)C(=O)N1CCN(C(=O)[C@@H]2CN(C3CCOCC3)C[C@H]2c2ccc(Cl)cc2F)[C@@H](C)C1` [Example 29, N-{(2S)-1-[(3S)-4-{[(3S,4R)-4-(4-chloro-2-fluorophenyl)-1-(tetrahydro-2H-pyran-4-yl)pyrrolidin-3-yl]carbonyl}-3-methylpiperazin-1-yl]-4-methyl-1-oxopentan-2-yl}methanesulfonamide monohydrochloride] stands 280 nM.
On the same count and under the same terms, next, `CC(=O)N[C@@H](CC(C)(C)C)C(=O)N1CCN(C(=O)[C@@H]2CN(C3CCCCC3)C[C@H]2c2ccc(F)cc2F)[C@@H](C)C1` [Example 25]: 120 nM.
As to `CC(=O)N[C@@H](Cc1ccc(Cl)cc1)C(=O)N1CCN(C(=O)[C@@H]2CN(C(C)(C)C)C[C@H]2c2ccc(F)cc2F)[C@@H](C)C1` [Example 7], the half-maximal effective concentration (EC50) on human MC4 receptor came out at 77 nM; at human MC1 receptor, 680 nM; at human MC3 receptor, 4400 nM; on rat MC4 receptor, 15 nM.
At human MC4 receptor, `CCC(=O)N[C@@H](CC(C)(C)C)C(=O)N1CCN(C(=O)[C@@H]2CN(C3CCOCC3)C[C@H]2c2ccc(Cl)cc2F)[C@@H](C)C1` [Example 21] yielded an EC50 of 130 nM.
The compound `CC(=O)N[C@@H](CC1CCC(F)(F)CC1)C(=O)N1CCN(C(=O)[C@@H]2CN(C(C)(C)C)C[C@H]2c2ccc(F)cc2F)[C@@H](C)C1` [Example 19] registered an EC50 at human MC4 receptor of 380 nM.
`CC(=O)N(C)[C@H](C(=O)N1CCN(C(=O)[C@@H]2CN(C(C)(C)C)C[C@H]2c2ccc(F)cc2F)[C@@H](C)C1)C1CCCCC1` [Example 10]: on human MC4 receptor, the EC50 amounted to 12 nM.
Still for that read-out and setting: next, `COC[C@H]1CN(C(=O)[C@H](CC(C)C)NC(C)=O)CCN1C(=O)C1CN(C(C)(C)C)CC1c1ccc(Br)cc1F` (stereo partly shown) [Example 12]: 14 nM.
For `CC(=O)N[C@@H](CC(C)(C)C)C(=O)N1CCN(C(=O)[C@@H]2CN(C(C)C)C[C@H]2c2ccc(F)cc2F)[C@@H](C)C1` [Example 24, N-{(2S)-1-[(3S)-4-{[(3S,4R)-4-(2,4-difluorophenyl)-1-isopropylpyrrolidin-3-yl]carbonyl}-3-methylpiperazin-1-yl]-4,4-dimethyl-1-oxopentan-2-yl}acetamide monohydrochloride], the EC50 was 78 nM at human MC4 receptor, 1500 nM on human MC1 receptor, 6400 nM on human MC3 receptor and 46 nM at rat MC4 receptor.
The like results for `CC(=O)N[C@@H](CC(C)(C)C)C(=O)N1CCN(C(=O)C2CN(C(C)(C)C)CC2c2ccc(Cl)cn2)[C@@H](C)C1` (stereo partly shown) [Example 23] were, in that order, 23 nM, 870 nM, 450 nM and 4.8 nM.

The term EC50 denotes the concentration giving half of the maximal effect. A lower EC50 goes with an effect from little substance.
